# In patent US9051240B2, “Substituted 2-[2-(phenyl) ethylamino] alkaneamide derivatives and their use as sodium and/or calcium channel modulators” (Newron Pharmaceuticals S.P.A., priority 2007, dated 2015):
# Counter-ions that a name gives are not always drawn. Like-named read-outs stand apart in the source and are kept apart here.
# What was measured:
# TTXs sodium channels = assay: TTXs-sodium channel influx assay (fluorescence, ND7/23 cell line); type: cell-based, rat; conditions: ND7/23 cells, veratridine 100 μM; read-out: Na+ influx IC50
# Experimental: ND7/23 rat dorsal root ganglion-derived cell line endogenously expresses a mixed population of TTXs sodium channels. These cells lack of TTXr sodium channels as shown by the absence of their respective transcripts.
# ND7/23 cells were grown in DMEM supplemented with 10% FBS and 1 mM sodium piruvate. The cells were seeded at 50,000 cells/well on 96 poly-L-lysine-coated plates and further incubated for 18-24 h before use.
# The Membrane Potential Kit Assay (Molecular Devices), based on a negatively charged fluorescent dye able to monitor changes in membrane potential caused by the sodium influx due to the channel opening, was used for the assay.
# Cells were incubated with the dye loading for 30 minutes at 25° C. Then, 100 nM of the toxin Anemonia sulcata (used as enhancer of the channel opener response) alone or in the presence of TTX (as reference standard) or test compound were added for further 15 minutes.
# The fluorescence (excitation:530 nm, emission: 565 nm wavelength) was measured before and after (40-45 s) the automated injection of the sodium channel opener veratridine (100 μM) using a Victor plate reader (Perkin Elmer).
# (§1) The inhibition curves were calculated from 5 concentrations, each in triplicate, and the IC50 determined using linear regression analysis.
# MAO-B = MAO-B (Rattus norvegicus (Rat), UniProt P19643); assay: In vitro MAO-B enzyme activity assay (radioenzymatic, rat brain mitochondria); type: biochemical; conditions: 14C-PEA 0.5 μM
# Sequence of MAO-B (P19643 whole entry): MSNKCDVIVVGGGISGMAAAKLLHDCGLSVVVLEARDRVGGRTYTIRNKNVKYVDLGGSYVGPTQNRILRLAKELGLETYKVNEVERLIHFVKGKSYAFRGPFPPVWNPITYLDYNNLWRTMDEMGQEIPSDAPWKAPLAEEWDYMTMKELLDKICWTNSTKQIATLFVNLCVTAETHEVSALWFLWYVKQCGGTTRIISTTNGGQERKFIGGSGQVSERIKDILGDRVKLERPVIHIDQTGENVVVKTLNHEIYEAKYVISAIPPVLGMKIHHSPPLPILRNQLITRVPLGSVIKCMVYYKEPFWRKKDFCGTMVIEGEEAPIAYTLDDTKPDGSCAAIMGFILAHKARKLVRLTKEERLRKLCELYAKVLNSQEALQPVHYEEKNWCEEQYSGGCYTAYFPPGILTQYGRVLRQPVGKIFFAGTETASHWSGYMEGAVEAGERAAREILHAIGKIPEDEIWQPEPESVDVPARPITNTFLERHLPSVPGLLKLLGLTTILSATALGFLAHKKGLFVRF
# Experimental: Male Wistar rats (Harlan, Italy weighing 175-200 g) were sacrificed under light anaesthesia and brains were rapidly removed and homogenized in 8 volumes of ice-cold 0.32 M sucrose buffer containing 0.1 M EDTA, pH 7.4. The crude homogenate was centrifuged at 2220 rpm for 10 minutes and the supernatant recovered. The pellet was homogenized and centrifuged again. The two supernatants were pooled and centrifuged at 9250 rpm for 10 minutes at +4° C. The pellet was resuspended in fresh buffer and centrifuged at 11250 rpm for 10 minutes at +4° C. The resulting pellet was stored at −80° C. The enzyme activity was assessed with a radioenzymatic assay using the substrate ^14C-phenylethylamine (PEA) specific for MAO-B. The mitochondrial pellet (500 μg protein) was resuspended in 0.1 M phosphate buffer (pH 7.4). 200 μl of the suspension were added to a 50 μl solution of the test compound or buffer, and incubated for 30 min at 37° C. (preincubation) then the substrate (50 μl) was added. The incubation was carried out for 10 minutes at 37° C. (^14C-PEA, 0.5 μM). The reaction was stopped by adding 0.2 ml of perchloric acid. After centrifugation, the deaminated metabolites were extracted with 3 ml of toluene and the radioactive organic phase containing the neutral and/or acidic metabolites formed as a result of MAO-B activity was measured by liquid scintillation spectrometry at 90% efficiency. The MAO-B activity was expressed as nmoles of substrate transformed/mg protein/min.
# mice [1] = assay: Maximal electroshock test (MES) in mice; type: in vivo; conditions: for ED50: Mus musculus
# Excerpt: The maximal electroshock test (MES) is used commonly in the screening of anti-epileptic drugs in rodent models.
# Animals and Apparatus: Male CD1 mice weighing 25 g were used. The procedure described by White et al. (White H. S., Woodhead J. H., Franklin M. R., Swinyard E. A., and Wolf H. H. Antiepileptic Drugs (1995) 4th ed: 99-110, Raven Press, Ltd., New York) was followed. An Ugo Basile electroconvulsive generator (Model ECT UNIT 7801) was used to deliver an electrical stimulus sufficient to produce a hindlimb tonic extensor response in at least 97% of control animals. The stimulus was delivered intra-aurally through clip electrodes in mice (0.7 s of a 40 mA shock, with a pulse train of 80 Hz having a pulse duration of 0.4 ms). The acute effect of compounds administered intraperitoneally (i.p.), subcutaneously (s.c.), intravenously (i.v.) or orally (p.o.) 5-120 minutes before MES induction were examined and compared with a vehicle control group. Ten mice were studied per group. Complete suppression of the hindlimb tonic extensor component of seizures was taken as evidence of anticonvulsant activity.
# The compounds of the invention were administered p.o. or i.v., at the doses of 0.1-100 mg/kg.
# [2] = tested on: Na+ currents in ND7/23 cells (TTX-s); assay: Patch clamp evaluation of Na+ currents blockade in ND7/23 cell line; type: cell-based, rat; conditions: for Ki: calculated from Kr and Kdep, read-out: Ki (apparent affinity for the inactivated state)
# Experimental: ND7/23 (ECACC No 92090903 from SIGMA), is a hybrid cell line derived from a neonatal rat DRG fused with the mouse neuroblastoma N18Tg2 (Wood et al., Proc. Biol. Sci., 1990 September, 241(1302), 187-194).
# The molecular identity of the channels responsible for the TTX-s conductance is unknown but it is presumed that TTX-s conductance arises from the activity of a mixed population of sodium channels.
# Cells are routinously maintained in DMEM with 10% of FBS, 4 mM glutamine, 1 mM sodium piruvate. The day before the patch clamp experiment cells are detached and seeded at 100,000 cells/polylysine-coated 35 mm Petri dish.
# Experiments on ND7/23 cells were carried out using standard whole cell patch clamp methods (Hamill et al., Pfugers Arch., 1981 August, 391(12), 85-100), as described in previous section.
# To test the effect of compounds on sodium currents in ND7/23 cells, holding membrane potential was set at −90 mV, then a two step protocol was used to determine the voltage dependence of the block. Sodium currents were activated by a 30 ms step pulse to 0 mV (test pulse) from a 2000 ms preconditioning potential of −110 mV (resting condition) and a potential of ˜−70 mV (half maximal steady-state condition).
# Tonic block of resting and depolarized currents at a given drug concentration was calculated as the difference between the peak Na^+ current in the control external bath solution and peak currents with the test substance divided by control peak.
# Drug concentration-inhibition curves were obtained by plotting tonic blocks in the resting and depolarized condition, versus drug concentrations. Dose-response curves were fitted to the tonic block data, according to the logistic equation: y=A2+(A1−A2)/[1+(x/IC50)p]. A1 and A2 are fixed values of 0 and 1 corresponding to 0 and 100% current inhibition, x is the drug concentration, IC50 is the drug concentration resulting in 50% current inhibition and p is the corresponding slope factor.
# The apparent affinity of drug for the inactivated state (Ki) was calculated according to the equation 1/Kdep=h/Kr+(1−h)/Ki where Kr is the affinity of drug for the resting/closed state; Kdep is the IC50 in the depolarized condition, h and (1−h) are the fractions of channels present at the rest. and dep. potentials, respectively.
# Control bath solution contained (mM): NaCl 80, Choline HCl 40, CaCl2 1.3, MgCl2 2, KCl 2, CdCl2 0.4, NiCl2 0.3, TEACl 20, Hepes 10, Glucose 10.
# Internal pipette solution consisted of (mM): CsF 65, CsCl 65, NaCl 10, CaCl2 1.3, MgCl2 2, Hepes 10, EGTA 10, MgATP 1.
# Compounds were dissolved as stock solutions (20 mM) in DMSO. They were diluted to the final concentrations in the external solution.
# L-type calcium channels = assay: Calcium channel influx assay (fluorescence, AtT20 cell line); type: cell-based, mouse; conditions: AtT20 cells, 100 mM KCl depolarization; read-out: Ca++ influx IC50
# Experimental: AtT20/D16v-F2 mouse pituitary tumour cell line preferentially expresses L-type calcium channels.
# AtT20 cells were grown in DMEM with 10% of FBS, 4 mM glutamine. The cells were seeded at 200,000 cells/well on 96 poly-L-lysine-coated plates and further incubated for 18-24 h, before use.
# The Ca^++ Kit Assay (Molecular Devices), which is based on a fluorescent calcium indicator to detect the calcium influx determined by depolarizing conditions, was used for the assay.
# Cells were incubated with the calcium dye loading for 30 min at 37° C. Then, ω-conotoxin alone (1 μM) or in presence of nifedipine (as reference standard) or test compound were added for further 15 min.
# The fluorescence (excitation: 485-emission: 535 nm wavelength) was measured before and after (30-40 sec) the automated injection of 100 mM KCl depolarizing solution using a Victor plate reader (Perkin Elmer).
# as §1
# [3] = biological target: Na+ currents in rat cortical neurons; assay: Patch clamp evaluation of Na+ currents blockade in rat cortical neurons; type: cell-based
# Experimental: Cortical neurons were prepared from embryonic Wistar rats (E17-E19). A female rat at date 17-19 of pregnancy was anesthetized and sacrificed. The fetuses (n=4-5) were dissected and placed in ice-cold Hank's solution (Hank's solution (Life tech.14170-088)+glucose 30%+Pen-Strep 100× (Life Tech. 15140-122) 100U-100 μg/ml and Hepes-NaOH 5 mM). The uterus and placenta were removed, the fetuses were decapitated and the heads were placed in ice-cold Hank's solution. Cells were counted and diluted in Neurobasal medium to a concentration of 400000 cells per poly-D-lysine 5 μg/ml treated Petri dish. Cortical neurons were used from day 6th till day 11th after plating, and once a week Neurobasal medium was changed. Experiments on cortical neurons were carried out using standard whole cell patch clamp methods (Hamill et al., Pfugers Arch., 1981 August, 391(12), 85-100). Membrane currents were recorded and filtered at 5 kHz with an Axon Axopatch 200B amplifier and data digitized with an Axon Digidata 1322A (Axon Instruments, CA, USA). Protocol playing and data acquisition were controlled online with Axon pClamp8 software. Measuring and reference electrodes were AgCl-Ag electrodes. A Sutter Instrument P-87 Puller (CA, USA) was used for pulling patch clamp pipettes with a resistance of 2-3 MΩ from Harward borosilicate glass tubes. Cells were continuously superfused with extracellular solutions, using a solution changer Biologic RSC-200. To test the effect of compounds on sodium currents in cortical neurons, cells were clamped at -90 mV, then a two step protocol was used to determine the voltage dependence of the block. […] Tonic block of resting and depolarized currents at a given drug concentration, was calculated as the difference between the peak Na^+ current in the control external bath solution and peak currents with the test substance divided by control peak. Drug concentration-inhibition curves were obtained by plotting tonic blocks in the resting and depolarized condition, versus drug concentrations. Dose-response curves were fitted to the tonic block data, according to the logistic equation: […] Control bath solution contained (mM): […] Internal pipette solution consisted of (mM): […] Compounds were dissolved as stock solutions (20 mM) in DMSO. They were diluted to the final concentrations in the external solution.
# mice [4] = assay: Formalin test; type: in vivo; conditions: Mus musculus, po
# Experimental: According to a modified protocol from Rosland et al. (Rosland J. H., Tjolsen A., Maehle B., Hole K. Pain (1990) 42: 235-242), mice were injected subcutaneously (s.c.) with 20 μl of 2.7% solution of formalin into the plantar surface of left hindpaw and placed immediately into clear PVC observation chambers (23×12×13 cm). Pain behaviour was quantified by counting the cumulative licking time (s) of the injected paw. Measurements were taken during the early phase (0-5 min) and late phase (20-40 min) after formalin injection (Tjolsen A., Berge O. G., Hunskaar S., Rosland J. H., Hole K. Pain (1992) 51: 5-17).
# The test compound was administered p.o. or s.c. 5-45 minutes before formalin injection in a volume of 10 ml/kg body weight to groups of 10 mice per dose. Control group was treated with vehicle.
# [5] = po, mice, MES, p.o., read-out: ED50 (mg/kg p.o.)
# [6] = read-out: IC50 depolarized, preconditioning potential ~-70 mV
# [7] = read-out: IC50 resting (Kr), preconditioning potential -110 mV
Structure (SMILES),IC50 (TTXs sodium channels),IC50 (MAO-B),ED50 (mice [1]; [5]),"% protection 10 mg/kg p.o. (mice [1]; mice, MES)",other results
"CCCCOc1ccc(F)c(CCNCC(=O)N(C)C)c1F.Cl [2-[2-(3-Butoxy-2,6-difluorophenyl)-ethylamino]-N,N-dimethylacetamide hydrochloride]",2.6 µM,> 300 µM,2 mg/kg,100%,
"CCCCOc1cccc(CCNCC(=O)N(C)C)c1F [2-[2-(3-Butoxy-2-fluorophenyl)-ethylamino]-N,N-dimethylacetamide]",,,,,"Ki [2]: 1 µM; IC50 [2, 6]: 1.7 µM; IC50 [2, 7]: 13 µM"
"CCCCOc1cc(CCNCC(=O)N(C)C)ccc1OC [2-[2-(3-Butoxy-4-methoxyphenyl)-ethylamino]-N,N-dimethylacetamide hydrochloride]",,> 300 µM,,,
"CCCCOc1cccc(CCNC(C)C(=O)N(C)C)c1.Cl (stereo not shown) [2-[2-(3-Butoxyphenyl)-ethylamino]-N,N-dimethylpropanamide hydrochloride]",1.1 µM,> 300 µM,6.5 mg/kg,60%,
CCCCOc1cccc(CCNCC(=O)NC)c1.Cl [2-[2-(3-Butoxyphenyl)-ethylamino]-N-methylacetamide hydrochloride],,110 µM,12.1 mg/kg,30%,
"CCCCCOc1cccc(CCNCC(=O)N(C)C)c1.Cl [2-[2-(3-Pentyloxyphenyl)-ethylamino]-N,N-dimethylacetamide hydrochloride]",0.5 µM,,,100%,"IC50 (L-type calcium channels): 8.3 µM; Ki [2]: 0.5 µM; IC50 [2, 6]: 0.7 µM; IC50 [2, 7]: 2.9 µM; ED50 (mice [1]; po, read-out: ED50 (mg/kg p.o.)): 2.8 mg/kg"
"C[C@H](NCc1ccc(OCc2cccc(F)c2)cc1)C(N)=O [safinamide, (S)-(+)-2-[4-(3-fluorobenzyloxy)-benzylamino]-propanamide]",7.4 µM,0.1 µM,,,"IC50 (L-type calcium channels): 33 µM; Ki ([3]; calculated from Kr and Kdep, read-out: Ki (apparent affinity for the inactivated state)): 3.6 µM; IC50 ([3]; preconditioning potential -110 mV, read-out: IC50 resting (Kr)): > 100 µM; IC50 ([3]; preconditioning potential ~-50 mV, read-out: IC50 depolarized): 7 µM; IC50 ([3]; resting condition, figure in parentheses after >100, read-out: IC50 resting (Kr), value in parentheses): 180 µM; ED50 (mice [4]): 69.4 mg/kg; ED50 (mice [1]; iv, mice, MES, i.v., read-out: MES ED50 mg/kg i.v.): 4 mg/kg"
